Test results taken from US11351218B2, “Composition for preventing or treating glioblastoma comprising Platycodon grandiflorum A. De Candolle, Scutellaria baicalensis, Phellodendron amurense Ruprecht or Rubus coreanus” (University-Industry Cooperation Group of Kyung Hee …, priority 2019, dated 2022).

Tested on: U373 cells
Test: GFP-LC3B puncta assay (confocal microscopy), U373 cells
Assay type: cell-based, human
Details: U373, 10 μM PD, 24 hours
Procedure: The cells transiently expressing GFP-LC3 (green) were treated with DMSO or PD (10 μM) for 24 hours and analyzed by confocal microscopy. Nuclei were stained with DAPI (blue). Quantification shown on the right graph represents mean GFP-LC3B puncta per cells from three independent experiments±SD.
Cultured cells seeded in plates with microscope coverslips were transfected with a pGFP-LC3B plasmid using Lipofectamine 3000 (Thermo Fisher Scientific) according to the manufacturer's instructions. After the transfection, the cells were fixed with 4% paraformaldehyde (PFA) in phosphate-buffered saline (PBS) at room temperature for 10 minutes. The images were examined under a laser confocal microscope (Zeiss, Oberkochen, Baden-Wurttemberg, Germany).
To confirm the western blot data, the LC3B accumulation in GBM cells was monitored using a confocal microscope. Both U87MG and U373MG cells transfected with a green fluorescent protein (GFP)-tagged LC3 expression plasmid were treated with 10 μM PD for 24 hours and examined under a confocal microscope.

For `C[C@@H]1O[C@@H](O[C@H]2[C@H](OC(=O)[C@]34CCC(C)(C)C[C@H]3C3=CC[C@@H]5[C@@]6(C)C[C@H](O)[C@H](O[C@@H]7O[C@H](CO)[C@@H](O)[C@H](O)[C@H]7O)C(CO)(CO)[C@@H]6CC[C@@]5(C)[C@]3(C)C[C@H]4O)OC[C@H](O)[C@@H]2O)[C@H](O)[C@H](O)[C@H]1O[C@@H]1OC[C@@H](O)[C@H](O[C@@H]2OC[C@](O)(CO)[C@H]2O)[C@H]1O` [PD, platycodin D], the “fold increase of GFP-LC3 puncta per cell vs DMSO” value was 8.9 fold and the “GFP-LC3 puncta per cell” value (mean±SD) was 32.84±3.98.
